From US9102630B2, “Crystals of salts of phenylalanine derivatives” (AJINOMOTO CO., INC., priority 2010, dated 2015)
In brackets after ≈: the same amount, converted by molar mass. Values belong to the molecule of their own block, whether it stands above or below them.

Legend:
Type in all cases: physicochemical
[1] = Determination of solubility in water (HPLC of supernatant); conditions: 25° C., 15 min, 50 mg suspended in 10 mL distilled water
Experimental: After 50 mg each of samples of the crystals prepared according to the foregoing methods and the crystal of the compound (I) in its free state was suspended in 10 mL of distilled water and then each suspension was stirred at room temperature for 15 minutes, the supernatant of each suspension was collected, then passed through a disposable filter of 0.2 μm for HPLC, 1 to 3.5 g of each filtered supernatant was dispensed, the volume thereof was increased up to 10 mL with a 90% aqueous solution of acetonitrile and finally the content of the compound (I) present in the supernatant was determined according to the HPLC while using the following conditions.
(Conditions for the HPLC Analysis)
(§1) Device Used: LC-10A Series (available from Shimadzu Corporation);
(§2) Column: Inertsil (available from GL Science Company) ODS-24.5 mm×150 mm, 5 μm, 40° C.;
(§3) Flow Rate: 1 mL/min, UV at 254 nm, 10 μL Injection;
(§4) Eluting Solution A: 0.1% TFA (trifluoroacetic acid)/water;
(§5) Eluting Solution B: 0.1% TFA/MeCN;
(§6) Gradient Program: 0→25 min (B: 0→90%).

[2] = Determination of adsorption-desorption of water vapor; conditions: isothermal water vapor adsorption-desorption, 25° C.
Experimental: The crystals of the present invention were inspected for their water vapor adsorption-desorption ability using BELLSORP-aqua3 available from Nippon Bell Co., Ltd. More specifically, about 300 mg of the compound represented by the formula (I) was dispensed into a measuring tube, dried at 50° C. for 30 minutes and the amount of water vapor adsorbed on or desorbed from the crystal was determined under the following conditions:
Adsorption Temperature: 25° C.; Equilibration Time: 500 sec; Saturated Vapor Pressure: 3.169 kPa;
Excessively Introduced Amount: 0.2 or 1.0 cm^3 (STP)/g; Tolerance for Increase or Decrease of Adsorbed Amount: 0.2 or 1.0 cm^3 (STP)/g.

[3] = Determination of storage stability (accelerated test, HPLC); conditions: 40° C., 75% RH, 2M (two months)
Experimental: The crystal of a salt of the compound represented by the formula (I) was inspected for the storage stability, when it was stored at 40° C., 75% RH over two months, according to the following method. The results observed for preferred crystals, i.e., forms Cl1, Br1, Br2, Ms1 and Ms3 crystals, among others, are summarized in the following Table 2. The data listed in Table 2 indicate that the crystals of the compound (I) in their preferred crystalline forms according to the present invention are particularly excellent in their storage stability.
The storage stability of each sample, which had been stored in a depository at 40° C., 75% RH over two months, was determined according to the HPLC analysis method.
More specifically, about 25 mg each of the crystals of the compound represented by the formula (I) was dispensed into a 50 mL volume measuring flask and then dissolved in a 90% aqueous solution of acetonitrile containing 0.1% TFA and the storage stability of the resulting solution was determined by the HPLC analysis under the following conditions.
(Conditions for HPLC Analysis)
as §1, §2, §3, §4, §5, §6

Compound: COC(=O)[C@H](Cc1ccc(-n2c(=O)c3cc(N(C)C)ccc3n(C)c2=O)cc1)NC(=O)c1c(Cl)cccc1Cl [Form Cl1]
change in crystalline state at a high humidity [2]: only a very slight change in its crystalline state | Solubility in Water ([1]; listed as Hydrochloride (Form Cl1)): 122 µg/mL (≈ 214 µM) | Accelerated Test, Stability: initial sample still in existence [3]: 99.03% of the initial sample was still in existence.

Compound: COC(=O)[C@H](Cc1ccc(-n2c(=O)c3cc(N(C)C)ccc3n(C)c2=O)cc1)NC(=O)c1c(Cl)cccc1Cl [Form Br1]
Solubility in Water ([1]; listed as HBr salt (Form Br1)): 120 µg/mL | Accelerated Test, Stability: initial sample still in existence [3]: 99.05% of the initial sample was still in existence.

Compound: COC(=O)[C@H](Cc1ccc(-n2c(=O)c3cc(N(C)C)ccc3n(C)c2=O)cc1)NC(=O)c1c(Cl)cccc1Cl [Form Br2]
change in crystalline state at a high humidity [2]: only a very slight change in its crystalline state | Solubility in Water ([1]; listed as HBr salt (Form Br2)): 123 µg/mL | Accelerated Test, Stability: initial sample still in existence [3]: 98.13% of the initial sample was still in existence and

Compound: COC(=O)[C@H](Cc1ccc(-n2c(=O)c3cc(N(C)C)ccc3n(C)c2=O)cc1)NC(=O)c1c(Cl)cccc1Cl [Form Cl2]
Solubility in Water ([1]; listed as Hydrochloride (Form Cl2)): 101 µg/mL (≈ 177 µM)

Compound: COC(=O)[C@H](Cc1ccc(-n2c(=O)c3cc(N(C)C)ccc3n(C)c2=O)cc1)NC(=O)c1c(Cl)cccc1Cl [Form Ms1]
change in crystalline state at a high humidity [2]: only a very slight change in its crystalline state | Solubility in Water ([1]; listed as Methane-sulfonate (Form Ms1)): 102 µg/mL (≈ 179 µM) | Accelerated Test, Stability: initial sample still in existence [3]: 99.06% of the initial sample was still in existence.

Compound: COC(=O)[C@H](Cc1ccc(-n2c(=O)c3cc(N(C)C)ccc3n(C)c2=O)cc1)NC(=O)c1c(Cl)cccc1Cl [Form Cl5]
Solubility in Water ([1]; listed as Hydrochloride (Form Cl5)): 91 µg/mL (≈ 160 µM)

Compound: COC(=O)[C@H](Cc1ccc(-n2c(=O)c3cc(N(C)C)ccc3n(C)c2=O)cc1)NC(=O)c1c(Cl)cccc1Cl [Form Cl3]
Solubility in Water ([1]; listed as Hydrochloride (Form Cl3)): 102 µg/mL (≈ 179 µM)

More lines, main results first:

Solubility in Water ([1]; listed as Nitrate (Form N1)): 110 µg/mL (≈ 193 µM)
Compound: COC(=O)[C@H](Cc1ccc(-n2c(=O)c3cc(N(C)C)ccc3n(C)c2=O)cc1)NC(=O)c1c(Cl)cccc1Cl [Form N1]

Solubility in Water ([1]; listed as Sulfate (Form S3)): 119 µg/mL (≈ 209 µM)
Compound: COC(=O)[C@H](Cc1ccc(-n2c(=O)c3cc(N(C)C)ccc3n(C)c2=O)cc1)NC(=O)c1c(Cl)cccc1Cl [Form S3]

Solubility in Water ([1]; listed as Toluene-sulfonate (Form Ts1)): 97 µg/mL (≈ 170 µM)
Compound: COC(=O)[C@H](Cc1ccc(-n2c(=O)c3cc(N(C)C)ccc3n(C)c2=O)cc1)NC(=O)c1c(Cl)cccc1Cl [Form Ts1]

Solubility in Water ([1]; listed as Methane-sulfonate (Form Ms3)): 109 µg/mL (≈ 191 µM)
Compound: COC(=O)[C@H](Cc1ccc(-n2c(=O)c3cc(N(C)C)ccc3n(C)c2=O)cc1)NC(=O)c1c(Cl)cccc1Cl [Form Ms3]
Accelerated Test, Stability: initial sample still in existence [3]: 97.41% of the initial sample was still in existence and

Solubility in Water [1]: 0.12 µg/mL (≈ 0.211 µM)
Compound: COC(=O)[C@H](Cc1ccc(-n2c(=O)c3cc(N(C)C)ccc3n(C)c2=O)cc1)NC(=O)c1c(Cl)cccc1Cl [Free State]

Solubility in Water ([1]; listed as Nitrate (Form N2)): 128 µg/mL (≈ 225 µM)
Compound: COC(=O)[C@H](Cc1ccc(-n2c(=O)c3cc(N(C)C)ccc3n(C)c2=O)cc1)NC(=O)c1c(Cl)cccc1Cl [Form N2]

Solubility in Water ([1]; listed as Methane-sulfonate (Form Ms2)): 115 µg/mL (≈ 202 µM)
Compound: COC(=O)[C@H](Cc1ccc(-n2c(=O)c3cc(N(C)C)ccc3n(C)c2=O)cc1)NC(=O)c1c(Cl)cccc1Cl [Form Ms2]

Solubility in Water ([1]; listed as Sulfate (Form S2)): 129 µg/mL (≈ 227 µM)
Compound: COC(=O)[C@H](Cc1ccc(-n2c(=O)c3cc(N(C)C)ccc3n(C)c2=O)cc1)NC(=O)c1c(Cl)cccc1Cl [Form S2]

Solubility in Water ([1]; listed as Methane-sulfonate (Form Ms4)): 94 µg/mL (≈ 165 µM)
Compound: COC(=O)[C@H](Cc1ccc(-n2c(=O)c3cc(N(C)C)ccc3n(C)c2=O)cc1)NC(=O)c1c(Cl)cccc1Cl [Form Ms4]

Solubility in Water ([1]; listed as Sulfate (Form S1)): 104 µg/mL (≈ 183 µM)
Compound: COC(=O)[C@H](Cc1ccc(-n2c(=O)c3cc(N(C)C)ccc3n(C)c2=O)cc1)NC(=O)c1c(Cl)cccc1Cl [Form S1]
